This passage reports inhibition, Activity and IC50 results from ChEMBL document CHEMBL5705899 (Biochem J, 2014).

pIC50: −log10 of the molar value. Calls of active or inactive are those of the source. The calls are words filed in the database; no cut-off is given here.

Test [1] has as its target Muscle, skeletal receptor tyrosine-protein kinase (Homo sapiens) (UniProt O15146). In words: Inhibition of human MUSK at 1 uM using poly(Ala,Glu,Lys,Tyr) as substrate in presence of 33P-ATP by ProQinase assay.
In test [2] the target is Tyrosine-protein kinase FRK (Homo sapiens) (UniProt P42685). Kind of test: Inhibition of human FRK at 1 uM using PolyEY as substrate in presence of 33P-ATP by ProQinase assay.
The target in test [3] is Dual specificity tyrosine-phosphorylation-regulated kinase 3 (Homo sapiens) (UniProt O43781). In words: Inhibition of recombinant human N-terminal GST-tagged DYRK3 (1 to 588 residues) expressed in Escherichia coli assessed as remaining activity at 1 uM using KKISGRLSPIMTEQ as substrate incubated for 30 mins in presence of [gamma-33P]ATP by filter binding method relative to control.

The target in test [4] is Calcium/calmodulin-dependent protein kinase kinase 1 (Homo sapiens) (UniProt Q8N5S9). Kind of test: Inhibition of human CAMKK1 at 1 uM using RB-CTF as substrate in presence of 33P-ATP by ProQinase assay.
For the next test, the target named is TAK1/TAB1 (Homo sapiens) (UniProt Q15750+O43318). In words: Inhibition of human MAP3K7/MAP3K7IP1 at 1 uM using RB-S6P as substrate in presence of 33P-ATP by ProQinase assay. It counts as protein-complex assay.
For test [5], the target named is Phosphatidylinositol 4,5-bisphosphate 3-kinase catalytic subunit delta isoform (Homo sapiens, UniProt O00329). In words: Inhibition of PI3Kdelta (unknown origin) using PtdIns(4,5)P2 as substrate preincubated for 20 mins followed by substrate addition and measured after 80 mins by Kinase-Glo assay. A general note: In Kinase-Glo more light means more ATP remaining.
Sequence of Phosphatidylinositol 4,5-bisphosphate 3-kinase catalytic subunit delta isoform (O00329 whole entry, canonical isoform): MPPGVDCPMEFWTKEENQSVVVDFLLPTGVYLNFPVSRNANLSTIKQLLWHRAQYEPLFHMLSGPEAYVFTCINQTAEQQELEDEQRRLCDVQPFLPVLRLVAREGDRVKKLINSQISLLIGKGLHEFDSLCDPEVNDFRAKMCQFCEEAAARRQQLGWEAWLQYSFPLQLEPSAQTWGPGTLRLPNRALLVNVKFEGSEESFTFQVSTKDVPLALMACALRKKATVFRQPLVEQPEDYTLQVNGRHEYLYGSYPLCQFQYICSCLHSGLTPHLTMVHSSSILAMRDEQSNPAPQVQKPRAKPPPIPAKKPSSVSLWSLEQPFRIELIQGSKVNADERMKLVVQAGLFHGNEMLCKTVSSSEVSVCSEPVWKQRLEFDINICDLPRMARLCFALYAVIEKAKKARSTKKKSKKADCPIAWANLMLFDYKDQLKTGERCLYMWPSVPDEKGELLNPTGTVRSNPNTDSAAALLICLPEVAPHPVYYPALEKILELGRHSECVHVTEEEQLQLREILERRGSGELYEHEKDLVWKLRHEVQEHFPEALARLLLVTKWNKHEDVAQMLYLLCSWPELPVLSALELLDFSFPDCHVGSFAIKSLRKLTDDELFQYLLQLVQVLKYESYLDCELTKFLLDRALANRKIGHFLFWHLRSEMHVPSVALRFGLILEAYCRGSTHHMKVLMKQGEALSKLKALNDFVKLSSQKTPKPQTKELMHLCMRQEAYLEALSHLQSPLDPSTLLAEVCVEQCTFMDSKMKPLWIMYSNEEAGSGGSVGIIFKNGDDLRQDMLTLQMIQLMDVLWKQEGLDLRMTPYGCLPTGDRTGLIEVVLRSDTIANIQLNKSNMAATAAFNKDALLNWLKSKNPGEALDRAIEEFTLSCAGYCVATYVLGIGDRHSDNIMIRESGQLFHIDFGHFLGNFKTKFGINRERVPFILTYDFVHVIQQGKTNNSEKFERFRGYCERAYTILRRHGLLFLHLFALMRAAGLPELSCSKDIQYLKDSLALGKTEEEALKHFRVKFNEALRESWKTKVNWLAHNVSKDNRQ

Test [6] concerns the target Mitogen-activated protein kinase 11 (Homo sapiens) (UniProt Q15759). Kind of test: Inhibition of recombinant human N-terminal GST-tagged P38beta (1 to 364 residues) expressed in Escherichia coli assessed as remaining activity at 1 uM using MBP as substrate incubated for 30 mins in presence of [gamma-33P]ATP by filter binding method relative to control.
Test [7] deals with Inhibitor of nuclear factor kappa-B kinase subunit beta (Homo sapiens) (UniProt O14920). In words: Inhibition of recombinant human N-terminal His6-tagged IKKbeta (1 to 736 residues) expressed in baculovirus infected Sf21 cells assessed as remaining activity at 1 uM using LDDRHDSGLDSMKDEEY as substrate incubated for 30 mins in presence of [gamma-33P]ATP by filter binding method relative to control.

For test [8], the target named is Mitogen-activated protein kinase 1 (Homo sapiens) (UniProt P28482). In words: Inhibition of human ERK2 at 1 uM using RBER-CHKtide as substrate in presence of 33P-ATP by ProQinase assay.
Test [9] has as its target MAP kinase-interacting serine/threonine-protein kinase 1 (Homo sapiens) (UniProt Q9BUB5). Kind of test: Inhibition of recombinant human N-terminal GST-tagged C-terminal His6-tagged MNK1 (2 to 424 residues) expressed in Escherichia coli assessed as remaining activity at 1 uM using eIF4E as substrate incubated for 30 mins in presence of [gamma-33P]ATP by filter binding method relative to control.

Test [10] concerns the target CDK7/Cyclin H/MNAT1 (Homo sapiens) (UniProt P51946+P50613+P51948). In words: Inhibition of human CDK7/CyclinH/MAT1 at 1 uM using RBER-CHKtide as substrate in presence of 33P-ATP by ProQinase assay. In kind it is protein-complex assay.
Test [11] concerns the target Vascular endothelial growth factor receptor 2 (Homo sapiens) (UniProt P35968). Kind of test: Inhibition of human VEGFR2 at 1 uM using polyEY as substrate in presence of 33P-ATP by ProQinase assay.
The target in test [12] is Mitogen-activated protein kinase kinase kinase 9 (Homo sapiens) (UniProt P80192). Kind of test: Inhibition of recombinant human N-terminal GST-tagged MLK1 (132 to 413 residues) expressed in baculovirus infected Sf21 cells assessed as remaining activity at 1 uM using MBP as substrate incubated for 30 mins in presence of [gamma-33P]ATP by filter binding method relative to control.
Sequence of Mitogen-activated protein kinase kinase kinase 9 (Homo sapiens) (P80192 whole entry, looked up, the tested form may be a part): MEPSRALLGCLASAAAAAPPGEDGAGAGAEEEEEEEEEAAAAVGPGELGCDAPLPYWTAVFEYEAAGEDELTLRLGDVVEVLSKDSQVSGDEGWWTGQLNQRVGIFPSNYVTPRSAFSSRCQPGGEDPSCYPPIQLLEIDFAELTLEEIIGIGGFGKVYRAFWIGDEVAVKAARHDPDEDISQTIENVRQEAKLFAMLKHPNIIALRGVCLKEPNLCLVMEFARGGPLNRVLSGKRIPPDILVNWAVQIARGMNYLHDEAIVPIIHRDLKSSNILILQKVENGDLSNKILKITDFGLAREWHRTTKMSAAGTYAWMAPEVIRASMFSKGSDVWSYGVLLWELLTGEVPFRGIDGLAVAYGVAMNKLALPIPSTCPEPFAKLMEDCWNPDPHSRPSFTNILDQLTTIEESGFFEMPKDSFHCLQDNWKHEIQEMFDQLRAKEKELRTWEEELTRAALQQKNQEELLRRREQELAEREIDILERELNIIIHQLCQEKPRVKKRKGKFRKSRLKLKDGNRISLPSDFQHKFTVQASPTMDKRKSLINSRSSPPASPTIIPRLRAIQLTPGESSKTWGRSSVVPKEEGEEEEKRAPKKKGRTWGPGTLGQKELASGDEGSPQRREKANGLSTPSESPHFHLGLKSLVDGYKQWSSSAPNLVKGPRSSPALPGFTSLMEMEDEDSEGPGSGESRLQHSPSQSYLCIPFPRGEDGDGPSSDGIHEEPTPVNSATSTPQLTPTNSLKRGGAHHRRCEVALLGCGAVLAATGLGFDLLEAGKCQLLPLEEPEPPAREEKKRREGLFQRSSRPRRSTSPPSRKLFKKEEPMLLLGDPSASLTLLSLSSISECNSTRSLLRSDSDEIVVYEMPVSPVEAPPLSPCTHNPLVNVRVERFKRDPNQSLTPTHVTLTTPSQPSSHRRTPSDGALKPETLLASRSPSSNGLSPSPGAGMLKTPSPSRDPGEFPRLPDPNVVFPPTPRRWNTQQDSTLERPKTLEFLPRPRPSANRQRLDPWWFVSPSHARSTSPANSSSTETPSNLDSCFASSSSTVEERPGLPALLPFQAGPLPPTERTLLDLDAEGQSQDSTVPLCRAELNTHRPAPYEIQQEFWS

Test [13] has as its target Serine/threonine-protein kinase SIK3 (Homo sapiens) (UniProt Q9Y2K2). Kind of test: Inhibition of recombinant human N-terminal GST and HA-tagged SIK3 (2 to 1369 residues) expressed in baculovirus infected Sf21 cells assessed as remaining activity at 1 uM using ALNRTSSDSALHRRR as substrate incubated for 30 mins in presence of [gamma-33P]ATP by filter binding method relative to control.

Test [14] concerns the target Sphingosine kinase 2 (Homo sapiens) (UniProt Q9NRA0). In words: Inhibition of recombinant human N-terminal His6-tagged SPHK2 (1 to 654 residues) expressed in baculovirus expression system at 1 uM using sphingosine as substrate incubated for 40 mins by ADP-Glo assay. For orientation: ADP-Glo turns the ADP formed in a reaction into a luminescent signal.
Test [15] has as its target Mitogen-activated protein kinase kinase kinase 5 (Homo sapiens) (UniProt Q99683). In words: Inhibition of recombinant human N-terminal GST-tagged ASK1 (670 to 950 residues) expressed in Escherichia coli assessed as remaining activity at 1 uM using MBP as substrate incubated for 30 mins in presence of [gamma-33P]ATP by filter binding method relative to control.
The target in test [16] is Serine/threonine-protein kinase Nek4 (Homo sapiens) (UniProt P51957). Kind of test: Inhibition of human NEK4 at 1 uM using MBP as substrate in presence of 33P-ATP by ProQinase assay.
Test [17] concerns the target Ephrin type-A receptor 7 (Homo sapiens) (UniProt Q15375). In words: Inhibition of human EPHA7 at 1 uM using polyEy as substrate in presence of 33P-ATP by ProQinase assay.
Test [18] has as its target CDK9/cyclin T1 (Homo sapiens) (UniProt O60563+P50750). In words: Inhibition of human CDK9/CyclinT1 at 1 uM using RBER-CHKtide as substrate in presence of 33P-ATP by ProQinase assay. It counts as protein-complex assay.
Test [19] has as its target Dual specificity tyrosine-phosphorylation-regulated kinase 2 (Homo sapiens) (UniProt Q92630). In words: Inhibition of recombinant human N-terminal GST-tagged DYRK2 (3 to 528 residues) expressed in Escherichia coli assessed as remaining activity at 1 uM using KKISGRLSPIMTEQ as substrate incubated for 30 mins in presence of [gamma-33P]ATP by filter binding method relative to control.

Test [20] has as its target Death-associated protein kinase 2 (Homo sapiens) (UniProt Q9UIK4). Kind of test: Inhibition of human DAPK2 at 1 uM using RB-S6P as substrate in presence of 33P-ATP by ProQinase assay.
The target of test [21] is Diacylglycerol kinase alpha (Homo sapiens) (UniProt P23743). In words: Inhibition of DGKalpha (unknown origin) at 1 uM.
Test [22] deals with Serine/threonine-protein kinase WNK1 (Homo sapiens) (UniProt Q9H4A3). Kind of test: Inhibition of recombinant human WNK1 (1 to 661 residues) expressed in baculovirus infected Sf21 cells assessed as remaining activity at 1 uM using YLRRRLSDSNF as substrate incubated for 30 mins in presence of [gamma-33P]ATP by filter binding method relative to control.

Sequence of Vascular endothelial growth factor receptor 2 (Homo sapiens) (P35968 whole entry, the tested form may be a part): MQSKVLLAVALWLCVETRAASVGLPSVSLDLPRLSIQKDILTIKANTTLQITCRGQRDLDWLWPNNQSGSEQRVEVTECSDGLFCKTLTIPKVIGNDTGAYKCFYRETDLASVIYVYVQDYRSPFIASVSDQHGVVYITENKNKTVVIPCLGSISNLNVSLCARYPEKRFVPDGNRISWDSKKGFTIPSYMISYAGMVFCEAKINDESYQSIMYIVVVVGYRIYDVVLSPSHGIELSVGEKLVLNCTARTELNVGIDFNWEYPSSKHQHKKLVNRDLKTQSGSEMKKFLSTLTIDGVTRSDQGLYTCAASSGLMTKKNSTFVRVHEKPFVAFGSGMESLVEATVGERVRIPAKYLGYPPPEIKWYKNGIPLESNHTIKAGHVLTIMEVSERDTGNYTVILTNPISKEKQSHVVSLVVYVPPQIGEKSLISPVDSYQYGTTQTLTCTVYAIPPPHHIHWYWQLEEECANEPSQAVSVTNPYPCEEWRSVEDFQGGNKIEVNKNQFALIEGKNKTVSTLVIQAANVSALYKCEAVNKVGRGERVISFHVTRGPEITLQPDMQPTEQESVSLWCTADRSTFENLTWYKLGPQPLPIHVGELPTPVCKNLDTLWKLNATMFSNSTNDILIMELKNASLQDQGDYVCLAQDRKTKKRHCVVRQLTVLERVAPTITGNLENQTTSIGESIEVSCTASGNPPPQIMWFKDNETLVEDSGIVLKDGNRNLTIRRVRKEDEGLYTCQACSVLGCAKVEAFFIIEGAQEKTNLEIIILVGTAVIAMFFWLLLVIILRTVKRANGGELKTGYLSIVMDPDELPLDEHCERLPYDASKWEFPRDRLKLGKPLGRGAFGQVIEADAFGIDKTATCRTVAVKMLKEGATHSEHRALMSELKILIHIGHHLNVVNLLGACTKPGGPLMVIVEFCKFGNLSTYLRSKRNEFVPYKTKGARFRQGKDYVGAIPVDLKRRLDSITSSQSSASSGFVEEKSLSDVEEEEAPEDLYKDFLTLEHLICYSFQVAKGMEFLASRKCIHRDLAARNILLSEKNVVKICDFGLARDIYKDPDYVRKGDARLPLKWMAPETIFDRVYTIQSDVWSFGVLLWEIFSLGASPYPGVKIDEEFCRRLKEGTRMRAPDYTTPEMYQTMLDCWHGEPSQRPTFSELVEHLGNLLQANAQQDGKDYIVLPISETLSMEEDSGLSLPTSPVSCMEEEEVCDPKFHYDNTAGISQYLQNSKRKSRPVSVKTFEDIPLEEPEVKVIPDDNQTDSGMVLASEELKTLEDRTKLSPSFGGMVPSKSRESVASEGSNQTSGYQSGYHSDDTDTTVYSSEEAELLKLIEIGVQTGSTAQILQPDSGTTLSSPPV
Sequence of MAP kinase-interacting serine/threonine-protein kinase 1 (Homo sapiens) (Q9BUB5 whole entry, looked up, the tested form may be a part): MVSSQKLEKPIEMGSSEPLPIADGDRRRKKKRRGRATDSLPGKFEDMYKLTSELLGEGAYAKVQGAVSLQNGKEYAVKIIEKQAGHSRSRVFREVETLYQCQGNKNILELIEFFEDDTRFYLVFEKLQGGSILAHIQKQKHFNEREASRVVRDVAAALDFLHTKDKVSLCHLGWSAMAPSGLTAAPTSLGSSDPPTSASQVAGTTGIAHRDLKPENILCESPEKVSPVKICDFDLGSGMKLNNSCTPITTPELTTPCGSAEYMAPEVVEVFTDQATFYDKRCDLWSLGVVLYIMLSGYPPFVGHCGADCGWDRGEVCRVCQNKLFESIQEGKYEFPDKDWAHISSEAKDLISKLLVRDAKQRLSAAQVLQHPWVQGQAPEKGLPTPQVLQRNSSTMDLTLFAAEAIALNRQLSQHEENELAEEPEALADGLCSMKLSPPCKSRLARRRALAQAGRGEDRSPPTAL
Sequence of Sphingosine kinase 2 (Homo sapiens) (Q9NRA0 whole entry, the tested form may be a part): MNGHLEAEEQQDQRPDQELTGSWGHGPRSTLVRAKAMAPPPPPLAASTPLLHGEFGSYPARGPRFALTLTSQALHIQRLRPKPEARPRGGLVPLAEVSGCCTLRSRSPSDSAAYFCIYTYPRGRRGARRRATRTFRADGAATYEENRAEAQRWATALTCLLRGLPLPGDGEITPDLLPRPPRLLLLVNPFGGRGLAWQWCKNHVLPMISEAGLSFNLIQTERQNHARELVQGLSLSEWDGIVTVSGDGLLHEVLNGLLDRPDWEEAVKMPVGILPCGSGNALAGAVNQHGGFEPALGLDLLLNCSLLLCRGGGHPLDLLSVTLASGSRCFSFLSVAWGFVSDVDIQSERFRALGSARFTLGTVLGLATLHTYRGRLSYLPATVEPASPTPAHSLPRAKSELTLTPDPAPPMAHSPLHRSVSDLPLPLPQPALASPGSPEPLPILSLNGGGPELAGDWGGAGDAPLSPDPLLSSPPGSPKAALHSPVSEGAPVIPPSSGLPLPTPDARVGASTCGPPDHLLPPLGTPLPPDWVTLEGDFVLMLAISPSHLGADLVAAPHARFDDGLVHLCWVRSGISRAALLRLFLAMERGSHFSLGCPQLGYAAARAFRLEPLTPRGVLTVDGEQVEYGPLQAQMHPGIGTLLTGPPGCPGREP
Sequence of Death-associated protein kinase 2 (Homo sapiens) (Q9UIK4 whole entry, looked up): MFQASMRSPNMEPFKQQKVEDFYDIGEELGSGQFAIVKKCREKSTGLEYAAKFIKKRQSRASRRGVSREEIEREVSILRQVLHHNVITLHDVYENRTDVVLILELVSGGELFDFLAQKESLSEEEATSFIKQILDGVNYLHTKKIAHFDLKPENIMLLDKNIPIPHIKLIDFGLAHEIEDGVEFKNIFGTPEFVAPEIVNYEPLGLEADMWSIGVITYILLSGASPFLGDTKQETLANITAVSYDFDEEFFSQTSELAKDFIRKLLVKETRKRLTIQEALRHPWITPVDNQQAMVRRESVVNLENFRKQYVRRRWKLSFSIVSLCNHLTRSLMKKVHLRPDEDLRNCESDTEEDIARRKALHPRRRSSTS

By pIC50 is commonly meant −log10 of the IC50, conventionally taken in molar units. High values mean a small IC50, low ones a large IC50. Turning to `CC(C)(O)CNc1ncc(-c2ccnc(Nc3ccnc(Cl)c3)n2)c(CC2CC2)n1`, the inhibition entry (in [1]; in [2]; in [4]; on TAK1/TAB1 (Homo sapiens); in [8]; in test [10]) was “inactive” throughout. In addition, the inhibition entry in [11], in test [14], in [16], in [17], in test [18] and in [20] was “inactive” throughout. In addition, the inhibition result in test [21] is “inactive”. Further, the Activity in [3] stood at 112%; in test [6], 115%; in test [7], 106%; in [9], 122%; in test [12], 119%; in test [13] it was 112%. The results for the Activity in test [15], in [19] and in test [22] were 124%, 109% and 116%, respectively. In test [5], this molecule showed a pIC50 of 5.72.
